Results from ChEMBL document CHEMBL1201862, “PubChem BioAssay data set” (2004).
Calls of active or inactive are those of the source.

How the values were obtained:
[1] = cervical cancer cell viability loss – HeLa, 24 h, plate reader, powder samples, set 3, cytotoxicity control, dose response (AID 651864); format: functional, cell-based
[2] = target: SWI/SNF-related matrix-associated actin-dependent regulator of chromatin subfamily A member 2 (Homo sapiens, UniProt P51531); experiment: Luminescence-based cell-based high throughput dose response assay to identify activators of the function of SWI/SNF related, matrix associated, actin dependent regulator of chromatin, subfamily a, member 2 (SMARCA2, BRM).; format: functional
[3] = A549 lung cell viability reduction – CellTiter-Glo luminescence, cherry-pick, cytotoxicity control, dose response (AID 743484); format: functional, cell-based
[4] = ATP-based viability loss in HEK293T cells – cell-based, CellTiter-Glo luminescence, cherry-picked samples, set 4, cytotoxicity control, dose response (AID 743441); format: functional; details: HEK293
[5] = target: DNA repair and recombination protein RAD54-like (Homo sapiens, UniProt Q92698); experiment: RAD54 Holliday junction migration blockers – biochemical, fluorescence, cherry-picked samples, dose series, confirmation (AID 651657); format: functional
[6] = target: T1, Heat shock factor protein 1 (Mus musculus, UniProt P38532); experiment: enhancement of HSF1-driven luciferase signal – cell-based, NIH3T3, luminescence, dose retest, confirmation (AID 435004); format: functional;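 also: stress induced by proteasome inhibitor MG132 added 30 min after compound; luciferase reporter driven by HSF1 response element in NIH3T3 cells; actives raise luminescence as potentiators of the MG132 stress response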
T1 sequence (P38532 whole entry): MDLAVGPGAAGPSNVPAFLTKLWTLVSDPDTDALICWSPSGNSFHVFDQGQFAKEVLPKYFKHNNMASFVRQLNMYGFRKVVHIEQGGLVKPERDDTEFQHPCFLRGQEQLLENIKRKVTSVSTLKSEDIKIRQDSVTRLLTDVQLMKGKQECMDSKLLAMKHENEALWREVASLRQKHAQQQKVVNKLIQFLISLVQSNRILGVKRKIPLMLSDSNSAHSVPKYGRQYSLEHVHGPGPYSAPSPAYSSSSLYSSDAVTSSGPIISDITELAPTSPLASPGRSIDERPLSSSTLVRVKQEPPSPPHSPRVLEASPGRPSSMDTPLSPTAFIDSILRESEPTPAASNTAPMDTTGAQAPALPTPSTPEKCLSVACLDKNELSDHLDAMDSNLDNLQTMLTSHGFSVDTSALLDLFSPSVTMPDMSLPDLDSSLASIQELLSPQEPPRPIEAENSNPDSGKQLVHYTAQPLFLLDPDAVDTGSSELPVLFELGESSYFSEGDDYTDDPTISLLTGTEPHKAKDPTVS

[7] = alpha-synuclein stem-loop luciferase translation blockers – H4 neuroglioma cells, luminescence, confirmation (AID 1988); format: functional, cell-based
[8] = Counterscreen for activators of the function of SWI/SNF related, matrix associated, actin dependent regulator of chromatin, subfamily a, member 2 (SMARCA2, BRM): Luminescence-based cell-based high throughput dose response assay to identify non-selective compounds using the VP16 reporter assay.; format: functional
[9] = Luminescence Cell-Based Dose Response HTS to Identify Inhibitors of 5'UTR Stem-Loop Driven Prion Protein mRNA Translation in H4 Neuroglioblastoma Cells. [Related pubchem assays: 1827 (Project Summary), 1813 (Primary HTS)]; format: functional
[10] = target: T2, Sentrin-specific protease 8 (Homo sapiens, UniProt Q96LD8); format: functional
T2 sequence (Q96LD8 whole entry): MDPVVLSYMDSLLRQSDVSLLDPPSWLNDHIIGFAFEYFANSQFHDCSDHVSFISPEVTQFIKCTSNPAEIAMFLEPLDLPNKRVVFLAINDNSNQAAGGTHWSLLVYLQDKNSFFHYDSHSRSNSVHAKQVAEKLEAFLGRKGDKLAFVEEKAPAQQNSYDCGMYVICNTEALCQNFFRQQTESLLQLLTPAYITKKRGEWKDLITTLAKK

[11] = target: Glucose-6-phosphate 1-dehydrogenase (Homo sapiens, UniProt P11413); experiment: inhibition of Homo sapiens G6PD, dose series – biochemical, fluorescence, selectivity assay for P. falciparum G6PD inhibitor project, dose response (AID 504792); format: functional
fMet-Leu-Phe receptor = fMet-Leu-Phe receptor (Homo sapiens, UniProt P21462); experiment: formyl peptide receptor binders – dose response (AID 519); format: functional
[12] = target: T2, Sentrin-specific protease 8; format: functional; remark: listed apart in the source
[13] = target: T3, Voltage-gated N-type calcium channel alpha-1B subunit/Amyloid beta A4 precursor protein-binding family A member 1 (Homo sapiens, UniProt Q00975+Q02410); format: protein assay
[14] = target: T3, Voltage-gated N-type calcium channel alpha-1B subunit/Amyloid beta A4 precursor protein-binding family A member 1; format: protein assay; remark: listed apart in the source
[15] = viability loss in HepG2 hepatoma cells – cell-based, ATP luminescence, cherry-pick, activator set 2, cytotoxicity control, dose response (AID 1053143); format: functional
[16] = target: Matrix metalloproteinase-14 (Homo sapiens, UniProt P50281); experiment: Dose Response confirmation of uHTS hits for a small molecule inhibitors of MT1-MMP activation in a fluorescence assay set 1.; format: functional
[17] = DRD fibroblast viability loss – cell-based, non-viral oncogenic, luminescence, dose response (AID 1934); format: functional; details: Homo sapiens
INS1 = experiment: INS-1E survival protection against cytokine death – cell-based, luminescence, retest, dose response (AID 449756); format: functional; details: Rattus norvegicus;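 also: cell death triggered by IL-1 beta plus TNF-alpha plus IFN-gamma mixture; protective hits raise ATP signal compared with cytokine alone wells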
[18] = blockers of bursicon-stimulated LGR2 cAMP reporter – cell-based, HEK293, CRE-luciferase reporter, cherry pick, set 2, dose response (AID 743343); format: functional;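 also: transfected cells were stimulated with diluted bursicon conditioned medium after compound addition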
[19] = target: Luciferin 4-monooxygenase (Photinus pyralis, UniProt P08659); experiment: inhibition of purified Photinus pyralis luciferase – biochemical, luminescence, dose response (AID 1891)
cells [20] = format: functional, cell-based
[21] = A549 cell cytotoxicity, dose response, cytotoxicity control, plate reader, cherry-pick, antagonist series (AID 743412); format: functional, cell-based
[22] = Luminescence Cell-Based Dose Confirmation HTS to Identify Inhibitors of Platelet Dense Granule Release. [Related pubchem assays: 1663 (Primary HTS), 1678 (Summary of Project)]; format: functional
cells [23] = format: functional, cell-based; remark: listed apart in the source
[24] = blockade of melanocortin 4 receptor signaling – cell-based, plate reader, cherry pick, counter-screen for LGR2 antagonist project, dose response (AID 743444); format: functional;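 also: transfected HEK 293 cells stimulated with alpha-MSH peptide; potency of inhibitors of the alpha-MSH evoked signal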
[25] = viability loss in HEK293 cells – cell-based, plate reader, cherry-picked samples, cytotoxicity control, dose response (AID 743446); format: functional
[26] = toxicity toward HepG2 liver cells – cell-based, plate reader, cherry-pick, antagonist series, cytotoxicity control, dose response (AID 743416); format: functional
BJ [27] = experiment: BJ-TERT fibroblast viability loss – cell-based, RAS-independent, luminescence, dose response (AID 1933); format: functional; details: Homo sapiens
BJ [28] = experiment: BJ-TERT-LT-ST fibroblast viability loss – cell-based, RAS-independent, luminescence, dose response (AID 1935); format: functional; details: Homo sapiens;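 also: BJ fibroblasts immortalized with TERT plus LT and ST oncogenes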
BJ [29] = experiment: cells; format: functional, cell-based; details: Homo sapiens
[30] = target: ATP-dependent translocase ABCB1 (Homo sapiens, UniProt P08183); experiment: inhibition of P-gp mediated JC-1 efflux – Jurkat-DNR cells, flow cytometry, dose response (AID 1689); format: functional
[31] = target: Broad substrate specificity ATP-binding cassette transporter ABCG2 (Homo sapiens, UniProt Q9UNQ0); experiment: blockers of JC-1 export by ABCG2 – Ig-MXP3 cells, flow cytometry, dose response (AID 1690); format: functional
[32] = target: Long-chain-fatty-acid--AMP ligase FadD28 (Mycobacterium tuberculosis, UniProt P9WQ59); experiment: Fluorescence polarization aasay to screen for inhibitors that compete for the binding of FadD28 to a bisubstrate Measured in Biochemical System Using Plate Reader - 2147-01_Inhibitor_Dose_CherryPick_Activity.; format: functional, Mycobacterium tuberculosis H37Rv
[33] = non-specific 3'UTR reporter inhibition in Clone20-Shn3RL – cell-based, Renilla luciferase, cherry-picked, counter-screen for Shn3 inhibitor project, dose response (AID 624133); format: functional
[34] = loss of viability in HepG2 cells – cell-based, CellTiter-Glo, cherry-picked, cytotoxicity control for Shn3 inhibitor project, dose response (AID 624134); format: functional
[35] = Shn3 3'UTR reporter signal decrease – cell-based, Clone20 osteoblasts, firefly luciferase, cherry-pick, set 2, Schnurri-3 inhibitor project, dose response (AID 720490); format: functional;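 also: actives lower the luminescence signal as inhibitors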
[36] = reduction of Shn3 3'UTR-driven luciferase in osteoblasts – cell-based, Clone20 osteoblasts, firefly luciferase, cherry-picked, dose response (AID 624132); format: functional;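 also: firefly luciferase luminescence from reporter carrying the Shn3 3'UTR in osteoblasts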
A549 = experiment: viability loss in A549 cells – cell-based, plate reader, cherry-pick samples, cytotoxicity control, dose response (AID 687028); format: functional; details: Homo sapiens

T3 sequence (Q00975 whole entry): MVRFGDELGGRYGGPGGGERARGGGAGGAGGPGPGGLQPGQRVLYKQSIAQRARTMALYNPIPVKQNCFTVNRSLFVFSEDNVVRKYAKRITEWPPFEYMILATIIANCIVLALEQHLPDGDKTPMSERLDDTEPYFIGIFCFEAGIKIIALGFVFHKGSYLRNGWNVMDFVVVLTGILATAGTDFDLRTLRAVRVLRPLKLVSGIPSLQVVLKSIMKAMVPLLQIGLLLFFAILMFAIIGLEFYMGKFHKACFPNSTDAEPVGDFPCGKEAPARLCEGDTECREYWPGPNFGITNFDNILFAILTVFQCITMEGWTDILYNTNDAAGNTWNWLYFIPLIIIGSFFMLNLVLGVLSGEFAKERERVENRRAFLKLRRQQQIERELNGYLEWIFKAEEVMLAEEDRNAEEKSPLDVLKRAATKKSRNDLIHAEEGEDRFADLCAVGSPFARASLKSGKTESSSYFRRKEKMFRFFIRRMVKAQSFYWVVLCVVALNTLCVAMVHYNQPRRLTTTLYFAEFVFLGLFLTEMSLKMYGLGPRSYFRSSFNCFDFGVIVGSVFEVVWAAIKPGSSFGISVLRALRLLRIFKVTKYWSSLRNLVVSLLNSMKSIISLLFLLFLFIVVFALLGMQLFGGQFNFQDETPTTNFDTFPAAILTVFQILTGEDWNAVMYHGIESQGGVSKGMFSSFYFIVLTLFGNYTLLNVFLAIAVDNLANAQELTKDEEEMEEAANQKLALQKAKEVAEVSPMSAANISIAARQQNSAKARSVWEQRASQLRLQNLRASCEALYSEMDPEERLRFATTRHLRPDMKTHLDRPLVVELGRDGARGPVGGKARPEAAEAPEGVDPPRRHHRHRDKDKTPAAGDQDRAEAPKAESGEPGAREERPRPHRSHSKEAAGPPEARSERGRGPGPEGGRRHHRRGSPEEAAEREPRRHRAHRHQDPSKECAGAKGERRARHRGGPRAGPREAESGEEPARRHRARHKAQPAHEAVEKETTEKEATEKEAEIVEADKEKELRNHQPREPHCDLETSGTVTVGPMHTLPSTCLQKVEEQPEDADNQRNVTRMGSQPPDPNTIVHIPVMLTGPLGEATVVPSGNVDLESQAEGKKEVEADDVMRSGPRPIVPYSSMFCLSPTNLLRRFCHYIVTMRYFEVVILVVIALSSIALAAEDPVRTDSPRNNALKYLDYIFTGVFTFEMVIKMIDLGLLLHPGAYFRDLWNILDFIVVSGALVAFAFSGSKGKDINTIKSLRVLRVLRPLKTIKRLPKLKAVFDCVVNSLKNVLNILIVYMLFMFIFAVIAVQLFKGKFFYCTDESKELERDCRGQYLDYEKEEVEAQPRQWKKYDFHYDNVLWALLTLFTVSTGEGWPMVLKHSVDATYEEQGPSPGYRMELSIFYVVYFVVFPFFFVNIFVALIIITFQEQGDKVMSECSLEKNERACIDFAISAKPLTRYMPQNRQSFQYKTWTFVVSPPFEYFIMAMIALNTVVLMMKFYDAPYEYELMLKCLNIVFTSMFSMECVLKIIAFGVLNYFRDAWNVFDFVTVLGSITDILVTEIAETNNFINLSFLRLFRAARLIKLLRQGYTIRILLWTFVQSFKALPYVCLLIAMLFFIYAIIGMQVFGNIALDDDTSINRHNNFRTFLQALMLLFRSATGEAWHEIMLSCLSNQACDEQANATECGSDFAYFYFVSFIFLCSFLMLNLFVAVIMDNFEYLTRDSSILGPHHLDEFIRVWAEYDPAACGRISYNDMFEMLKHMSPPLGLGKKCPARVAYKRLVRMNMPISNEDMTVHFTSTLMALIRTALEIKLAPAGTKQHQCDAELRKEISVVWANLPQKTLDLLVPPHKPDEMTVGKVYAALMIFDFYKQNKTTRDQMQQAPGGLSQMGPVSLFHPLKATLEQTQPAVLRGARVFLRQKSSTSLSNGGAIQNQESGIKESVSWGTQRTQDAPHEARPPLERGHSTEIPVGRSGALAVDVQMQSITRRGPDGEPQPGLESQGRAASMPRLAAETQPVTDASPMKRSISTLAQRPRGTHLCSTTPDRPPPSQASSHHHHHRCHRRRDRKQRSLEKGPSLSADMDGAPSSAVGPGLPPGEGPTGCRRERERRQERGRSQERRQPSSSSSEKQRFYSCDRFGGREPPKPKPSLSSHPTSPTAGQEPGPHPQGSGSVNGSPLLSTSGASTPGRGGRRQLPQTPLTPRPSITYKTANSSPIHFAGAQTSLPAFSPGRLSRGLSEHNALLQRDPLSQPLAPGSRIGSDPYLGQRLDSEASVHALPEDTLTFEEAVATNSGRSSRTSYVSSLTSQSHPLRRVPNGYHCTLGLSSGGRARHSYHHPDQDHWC
T3 sequence (Q02410 whole entry): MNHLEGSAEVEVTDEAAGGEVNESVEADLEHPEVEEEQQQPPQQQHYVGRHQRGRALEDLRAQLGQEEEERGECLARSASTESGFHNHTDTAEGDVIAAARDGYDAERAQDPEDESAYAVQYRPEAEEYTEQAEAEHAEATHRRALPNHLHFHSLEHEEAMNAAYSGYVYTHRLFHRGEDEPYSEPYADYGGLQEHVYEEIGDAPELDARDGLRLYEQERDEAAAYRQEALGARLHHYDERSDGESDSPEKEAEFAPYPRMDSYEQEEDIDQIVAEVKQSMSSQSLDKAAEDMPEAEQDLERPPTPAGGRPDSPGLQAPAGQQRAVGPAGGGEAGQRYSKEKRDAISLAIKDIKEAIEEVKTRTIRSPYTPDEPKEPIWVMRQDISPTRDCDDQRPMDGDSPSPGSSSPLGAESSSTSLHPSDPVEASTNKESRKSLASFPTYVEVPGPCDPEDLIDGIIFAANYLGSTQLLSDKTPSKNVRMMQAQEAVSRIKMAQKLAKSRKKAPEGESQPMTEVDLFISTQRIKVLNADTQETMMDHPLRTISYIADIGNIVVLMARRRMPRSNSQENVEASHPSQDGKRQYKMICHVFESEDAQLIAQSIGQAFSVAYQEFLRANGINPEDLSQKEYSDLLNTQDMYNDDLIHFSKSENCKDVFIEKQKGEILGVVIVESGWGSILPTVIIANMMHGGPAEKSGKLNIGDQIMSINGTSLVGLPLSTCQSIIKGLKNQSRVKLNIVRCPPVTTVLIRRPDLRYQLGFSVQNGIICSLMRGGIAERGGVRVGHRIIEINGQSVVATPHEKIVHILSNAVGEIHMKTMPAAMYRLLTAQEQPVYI
DNA repair and recombination protein RAD54-like, sequence (Q92698 whole entry): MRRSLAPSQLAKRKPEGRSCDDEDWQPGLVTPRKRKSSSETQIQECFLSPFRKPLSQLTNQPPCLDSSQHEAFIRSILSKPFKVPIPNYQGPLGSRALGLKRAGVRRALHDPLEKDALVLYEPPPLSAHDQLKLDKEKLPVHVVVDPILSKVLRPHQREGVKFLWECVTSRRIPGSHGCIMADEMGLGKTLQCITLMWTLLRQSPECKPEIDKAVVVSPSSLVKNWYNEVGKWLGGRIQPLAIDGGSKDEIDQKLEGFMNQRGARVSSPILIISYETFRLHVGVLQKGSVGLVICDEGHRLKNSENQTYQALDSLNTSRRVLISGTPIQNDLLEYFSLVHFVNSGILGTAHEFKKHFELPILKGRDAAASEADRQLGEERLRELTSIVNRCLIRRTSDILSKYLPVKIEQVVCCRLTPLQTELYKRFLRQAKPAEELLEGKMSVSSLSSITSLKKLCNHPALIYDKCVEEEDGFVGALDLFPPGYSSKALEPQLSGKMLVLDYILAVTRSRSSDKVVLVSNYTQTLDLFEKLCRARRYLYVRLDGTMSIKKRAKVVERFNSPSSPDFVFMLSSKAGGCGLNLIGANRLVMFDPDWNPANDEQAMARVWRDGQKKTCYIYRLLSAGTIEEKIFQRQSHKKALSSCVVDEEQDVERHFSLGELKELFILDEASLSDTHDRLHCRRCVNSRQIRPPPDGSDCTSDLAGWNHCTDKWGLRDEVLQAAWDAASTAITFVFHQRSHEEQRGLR
Broad substrate specificity ATP-binding cassette transporter ABCG2, sequence (Q9UNQ0 whole entry): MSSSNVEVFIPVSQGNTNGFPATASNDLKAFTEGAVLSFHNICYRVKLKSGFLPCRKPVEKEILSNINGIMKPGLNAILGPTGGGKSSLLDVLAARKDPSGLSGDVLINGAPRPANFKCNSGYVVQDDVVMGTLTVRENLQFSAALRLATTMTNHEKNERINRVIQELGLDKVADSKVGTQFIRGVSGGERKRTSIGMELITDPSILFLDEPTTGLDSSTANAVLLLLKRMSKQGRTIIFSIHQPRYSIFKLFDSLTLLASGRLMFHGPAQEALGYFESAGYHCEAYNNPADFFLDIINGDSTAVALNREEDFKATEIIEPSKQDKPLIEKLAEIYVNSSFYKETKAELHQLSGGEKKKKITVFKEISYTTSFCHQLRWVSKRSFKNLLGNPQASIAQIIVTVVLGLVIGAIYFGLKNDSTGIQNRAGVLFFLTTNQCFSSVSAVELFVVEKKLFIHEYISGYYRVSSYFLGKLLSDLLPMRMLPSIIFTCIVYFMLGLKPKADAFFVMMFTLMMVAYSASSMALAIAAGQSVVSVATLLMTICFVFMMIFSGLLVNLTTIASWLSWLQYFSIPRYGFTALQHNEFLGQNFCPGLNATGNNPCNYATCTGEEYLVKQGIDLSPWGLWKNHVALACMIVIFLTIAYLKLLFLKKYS
Glucose-6-phosphate 1-dehydrogenase, sequence (P11413 whole entry): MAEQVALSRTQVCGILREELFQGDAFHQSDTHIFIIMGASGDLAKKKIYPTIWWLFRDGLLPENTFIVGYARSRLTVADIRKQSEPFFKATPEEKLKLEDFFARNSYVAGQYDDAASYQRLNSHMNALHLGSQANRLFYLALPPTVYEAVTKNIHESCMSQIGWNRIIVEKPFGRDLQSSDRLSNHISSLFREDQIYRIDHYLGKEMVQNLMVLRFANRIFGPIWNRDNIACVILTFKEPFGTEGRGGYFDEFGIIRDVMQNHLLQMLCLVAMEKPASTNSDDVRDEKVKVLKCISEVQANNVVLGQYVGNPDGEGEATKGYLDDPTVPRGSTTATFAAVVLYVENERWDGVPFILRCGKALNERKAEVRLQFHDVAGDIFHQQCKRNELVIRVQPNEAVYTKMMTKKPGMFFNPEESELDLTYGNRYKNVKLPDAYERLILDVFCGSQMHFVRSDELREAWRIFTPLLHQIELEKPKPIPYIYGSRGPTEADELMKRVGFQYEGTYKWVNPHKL

Which AC50 [1] does the source give for CCCn1nnnc1NCc1ccc(N2CCCC2)cc1 here?
Its AC50 is > 160 µM (inactive).

Which EC50 [2] does the source give for CCN(CC)CCn1c2ccccc2c2nc3ccc([N+](=O)[O-])cc3cc21 here?
Its EC50 is 7.55 µM (active).

And the AC50 [3]?
Its AC50 is 39.6 µM (active).

What about the AC50 [4] of the same compound?
Its AC50 is 5.85 µM (active).

And the AC50 [5]?
Its AC50 is 1.56 µM (active).

What about the EC50 [6] of the same compound?
Its EC50 is 15.8 µM (active).

And the EC50 [7]?
The EC50 was 8.22 µM (inconclusive).

And the EC50 [8]?
The EC50 was > 91.2 µM (inactive).

What about the EC50 [9] of the same compound?
The EC50 was > 120 µM (not active).

For COc1ccc2ccccc2c1C1CC(=O)N2CN(C3CCCCC3)CSC2=C1C#N (centres undefined), which IC50 [10] is on record?
Its IC50 is 5.43 µM (active).

What about the IC50 [11] of the same compound?
The IC50 was > 80 µM (inactive).

And the Ki (fMet-Leu-Phe receptor)?
Its Ki is 19.7 µM (inactive).

What about the IC50 [12] of the same compound?
Its IC50 is 0.632 µM (active).

And the IC50 [13]?
Its IC50 is > 50 µM (inactive).

And the IC50 [14]?
Its IC50 is > 56.8 µM (not active).

Which AC50 [15] does the source give for Cc1ccc(-c2noc(-c3ccccc3F)n2)cc1 here?
The AC50 was 26 µM (active).

Which IC50 [16] does the source give for CCCN1/C(=C2/SC(=S)N(CC)C2=O)C=Cc2ccccc21 here?
Its IC50 is 30.6 µM (inactive).

Which EC50 [17] does the source give for Cc1nc2cc(-c3ccccc3)sc2c(=O)n1N here?
The EC50 was 3.78 µM (active).

What about the AC50 (INS1) of the same compound?
The AC50 was 3.95 µM (active).

What about the AC50 [18] of the same compound?
The AC50 was 0.868 µM (active).

And the EC50 [19]?
Its EC50 is 0.546 µM (active).

What about the EC50 (cells [20]) of the same compound?
The EC50 was > 350 µM (not active).

And the AC50 [21]?
Its AC50 is 5.97 µM (active).

What about the EC50 [22] of the same compound?
Its EC50 is 0.365 µM (active).

What about the EC50 (cells [23]) of the same compound?
The EC50 was 7.12 µM (active).

What about the AC50 [24] of the same compound?
Its AC50 is 1.17 µM (active).

And the AC50 [25]?
Its AC50 is 5.12 µM (active).

And the AC50 [26]?
Its AC50 is 5.13 µM (active).

What about the EC50 (BJ [27]) of the same compound?
Its EC50 is 5.93 µM (active).

What about the EC50 (BJ [28]) of the same compound?
Its EC50 is 12 µM (active).

And the EC50 (BJ [29])?
The EC50 was 2.32 µM (inconclusive).

For N#Cc1ccc(COC(=O)c2ccc(N3CCCC3)c([N+](=O)[O-])c2)cc1, which EC50 [30] is on record?
The EC50 was 12 µM (inactive).

And the EC50 [31]?
The EC50 was 0.45 µM (inactive).

Which AC50 [32] does the source give for O=C(NC(NC(=S)N1CCOCC1)C(Cl)(Cl)Cl)c1cccc2ccccc12 (centres undefined) here?
The AC50 was > 100 µM (inactive).

With CC(=O)Nc1ccc(OCC(=O)Nc2ccc(Cl)c(S(=O)(=O)N3CCOCC3)c2)cc1 as the compound, how does the AC50 [33] read?
Its AC50 is 9.23 µM (active).

What about the AC50 [34] of the same compound?
The AC50 was 53.5 µM (active).

And the AC50 [35]?
Its AC50 is 3.49 µM (active).

And the AC50 [36]?
Its AC50 is 1.59 µM (active).

Which AC50 (A549) does the source give for COc1ccc(-c2cc(NC=O)c3ncc(-c4cc(OC)c(OC)c(OC)c4)n3c2)c(OC)c1 here?
The AC50 was 13.6 µM (active).
